We go through 3 compounds from patent publication US20250099428A1, “USE OF BENZISOSELENAZOLE COMPOUND IN PREPERATION OF DRUG FOR TREATMENT OF SPINAGLIOMA” (Beijing Neurosurgical Institute, priority 2022, published 2025).

Data set [1] relates to SCA-S01 cells. Nature of the data set: CCK8 cell proliferation inhibition, spinaglioma cells SCA-S01. Format: cell-based, human. Particulars: cytarabine 24, 48, 96 hours, BS 24, 48 hours. As for the experimental part: Spinaglioma cells SP0001 in a logarithmic growth phase were digested with trypsin and centrifuged to obtain a cell precipitate, and cells were counted after being re-suspended in a complete medium. Based on the count results, the cells SP0001 were inoculated into a 96-well cell culture plate with 5000 cells per well and cultured in a 37° C. incubator in a 5% CO2 environment. After 24 hours, the cells were treated with drugs. Atemozolomide (TMZ) compound and a benzisoselenazole compound (BS) of the present invention were respectively dissolved in DMSO to prepare a stock solution, which was then dissolved with the complete medium to different drug concentrations. The gradient concentrations of TMZ were 0, 100, 150, 200, 250, 300, 350, and 400 μM. The gradient concentrations of BS were 0, 1, 2, 3, 4, 5, 6, 7, and 8 μM. […]
The well plate was put back into the incubator, and cell proliferation was tested after 24 and 48 hours, respectively. […] The well plate was taken out of the incubator, the cell medium was removed from the wells to be tested, 110 μL of CCK8 working solution was added to each well, the incubation was continued for 2 hours, then the absorbance at 450 nm was measured on an enzyme-linked immunosorbent assay (ELISA) reader, an inhibition rate corresponding to each concentration was calculated, and IC50 values at corresponding time were calculated using GraphPad 7.0 software. […]

For data set [2], the system named is Spinaglioma cells SP0001. Kind of data set: CCK8 cell proliferation inhibition, spinaglioma cells SP0001. Format: cell-based, human. Particulars: for growth inhibition / killing effect on SP0001 cells: CCK8, cytarabine 24, 48, 96 hours, BS 24, 48 hours. As for the experimental part:
Spinaglioma cells SP0001 in a logarithmic growth phase were digested with trypsin and centrifuged to obtain a cell precipitate, and cells were counted after being re-suspended in a complete medium. Based on the count results, the cells SP0001 were inoculated into a 96-well cell culture plate with 5000 cells per well and cultured in a 37° C. incubator in a 5% CO2 environment. After 24 hours, the cells were treated with drugs. Atemozolomide (TMZ) compound and a benzisoselenazole compound (BS) of the present invention were respectively dissolved in DMSO to prepare a stock solution, which was then dissolved with the complete medium to different drug concentrations. The gradient concentrations of TMZ were 0, 100, 150, 200, 250, 300, 350, and 400 μM. The gradient concentrations of BS were 0, 1, 2, 3, 4, 5, 6, 7, and 8 μM. The medium was removed from the wells, and the corresponding drug solution of each concentration was added with 100 μL per well.
[…] When testing, a CCK8 working solution was prepared in advance, namely, an appropriate volume of working solution was prepared based on 100 μL serum-free medium and 10 μL CCK8 per well, and the working solution was placed in dark. The well plate was taken out of the incubator, the cell medium was removed from the wells to be tested, 110 μL of CCK8 working solution was added to each well, the incubation was continued for 2 hours, then the absorbance at 450 nm was measured on an enzyme-linked immunosorbent assay (ELISA) reader, an inhibition rate corresponding to each concentration was calculated, and IC50 values at corresponding time were calculated using GraphPad 7.0 software.
This example measured the killing effects of a cytarabine compound and the BS compound of the present invention on two types of spinaglioma cell lines SCA-S01 and SP0001, using the same method as Example 1.

Data set [3] relates to SP0001 human-derived spinaglioma tumor. Kind of data set: SP0001 tumor-bearing NPG mouse model, tumor growth inhibition. The data set is classed as in vivo, NPG immunodeficient mice. Particulars: for tumor volume inhibition rate: end of experiment; for tumor size at end of experiment: intragastric once a day, 24 days. On the procedure: (§1) First, a tumor-bearing mouse model was built. Female NPG immunodeficient mice (6-8 weeks, starting weight 16-21 g, purchased from Beijing Vitalstar Biotechnology Co., Ltd.) were used for experimental research. The animals were raised and operated under sterile conditions, and all animal experiments were conducted in accordance with the international guidelines for animal experimentation. SP0001 human-derived spinaglioma tumor blocks (2-3 mm^3) were prepared and inoculated subcutaneously to the right ventrodorsal side of each NPG mouse. After inoculation, the status of the mice was observed, and the size of the tumor was measured. The animals with a tumor volume of 40 mm^3 were selected for experiment, and the animals that had too large tumor and no tumor were not selected. A total of 40 suitable tumor-bearing animals were selected for the experiment and divided into 5 experimental groups, with 8 mice in each group. The first day of administration was recorded as D1, the second day of administration was recorded as D2, and so on. All the animals were administered intragastrically once a day for 24 consecutive days. […] In the experiment, the physiological saline group was used as a negative control, and the temozolomide (TMZ) treatment group was used as a positive control.

The nature of data set [4]: Body weight and toxicity in tumor-bearing NPG mice. Format: in vivo, NPG immunodeficient mice. Particulars: for toxic and side effects on NPG mice: intragastric once a day, 24 days, BS: BSM and BSH groups, TMZ 30 mg/Kg. On the procedure:
as §1
During the experiment, no clinical abnormal symptoms or animal deaths due to drug toxicity were observed.
The histogram of the weight change rate of NPG mice after administration was shown in FIG. 9 (BSL, BSM, and BSH represent a low dose group 90 mg/Kg, a medium dose group 180 mg/Kg, and a high dose group 360 mg/Kg of the drug BS respectively).

The test system of data set [5] is primary spinaglioma cell line SP0001. Nature of the data set: Live and dead cell fluorescence staining of SP0001 cells. The data set is classed as cell-based, human. Particulars: 6 μM, treated 48 hours. On the procedure: Fluorescence staining was performed using live and dead cell staining technology on the primary spinaglioma cell line SP0001 treated with the benzisoselenazole compound for 48 hours.

Setting [6] is: SP0001 cells, CCK8, 24 and 48 hours.

Entries after “also recorded” stand apart in the source; their conditions may differ.

On to `Nc1ccn([C@@H]2O[C@H](CO)[C@@H](O)[C@@H]2O)c(=O)n1` [cytarabine, reference compound], for which the “killing effect on SCA-S01 cells” value in data set [1] is reported as “weak killing effect”. Moreover, in data set [2], the “growth inhibition / killing effect on SP0001 cells” value was “cannot significantly inhibit the growth”.

As to `Cn1nnc2c(C(N)=O)ncn2c1=O` [TMZ, temozolomide, reference compound], in data set [3] (TMZ group 30 mg/Kg), the “tumor volume inhibition rate” value worked out at 82.59% and the “tumor size at end of experiment” value was 26.61±10.30 mm^3. Also, the “weight loss compared to the Control group (decrease)” value in data set [4] (TMZ group 30 mg/Kg) is “over 20%”. Moreover, the “toxic and side effects on NPG mice” value in data set [4] was “significant toxic and side effects; also recorded: obvious toxicity”.

In the case of `O=c1c2ccccc2[se]n1CCCCn1[se]c2ccccc2c1=O` [BS], in data set [1], the “killing effect on SCA-S01 cells” value was “strong killing effects”. The entries for the “tumor volume inhibition rate” value in data set [3] (BS high dose 360 mg/Kg), in data set [3] (BS low dose 90 mg/Kg) and in data set [3] (BS medium dose 180 mg/Kg) were 45.99%, 14.01% and 25.89%, respectively. Also, the “tumor size at end of experiment” value in data set [3] (BSH high dose 360 mg/Kg) was found to be 82.56±41.40 mm^3; in data set [3] (BSL low dose 90 mg/Kg) it was 131.44±39.81 mm^3; in data set [3] (BSM medium dose 180 mg/Kg) it was 113.29±57.21 mm^3. Also, the “weight change during administration” value in data set [4] (BSM and BSH groups (180 and 360 mg/Kg)) is recorded as “did not show any weight loss; also recorded: no significant change in body weight”. The “toxic and side effects on NPG mice” value in data set [4] is “no significant toxic and side effects”. The killing effect in data set [5] turned out to be 90%. In addition, the “growth inhibition / killing effect on SP0001 cells” value in data set [2] is listed as “significant killing effect”. For the same compound, the “inhibitory effect on proliferation of patient-derived spinaglioma cell line” value in data set [2] (setting [6]) is “obvious inhibitory effect”. Further, the “sensitivity of patient-derived spinaglioma to the compound” value in data set [2] (setting [6]) is on record as “sensitive”.
